{"source": "patent US10928381B2", "about": "“In vitro methods of monitoring autophagy in a human cell using a photoconvertable fluorescent protein linked biomarker” (The Regents of the University of Michigan, priority 2018, dated 2021)", "tested_on": "Tandem reporter (RFP-GFP-LC3) HeLa cells", "assay": "Tandem reporter (RFP-GFP-LC3) assay, % of RFP puncta that are GFP positive", "assay_type": "cell-based", "conditions": "imaged after 12 hours", "method": "FIG. 13A-E. Validation of novel autophagy inhibitors with an independent measure of autophagic flux. (FIG. 13A) Tandem reporter (RFP-GFP-LC3) HeLa cells treated with the indicated compounds and imaged after 12 hours in RFP (middle panels) GFP (bottom panels). […] Concentrations used correspond to the lowest dose resulting in the maximum degree of colocalization between GFP and RFP puncta as calculated in (B). These are: 3 nM Bafilomycin, 1 uM Quinacrine, 50 uM 245536, and 100 uM of 254522, 45808, 234794, and 237373. (Scale bar: 50 μm) (FIG. 13B) The percentage of RFP positive puncta that are also GFP positive in tandem reporter HeLa cells was analyzed using Cell Profiler. First GFP (1a) and RFP (1b) images of the same field of cells are uploaded into Cell Profiler. Using the GFP images, nuclei are identified (2a-green outlines) and a nuclear mask (2b) is generated. […] Cellular boundries are identified (3a-purple outlines) and a cellular mask is created. […] Only puncta within this mask will be evaluated in subsequent steps. […] (FIG. 13D) Tandem reporter HeLa cells were imaged once prior to drug treatment and then treated with the lowest dose that produced the maximum response as calculated in (FIG. 13C) and imaged immediately after. […] Each point is calculated by taking the mean % of (GFP+/RFP+ puncta)/(RFP+) from 8 technical replicates. […]"}
{"smiles": "CO/C1=C\\C(C)=C\\[C@@H](C)[C@@H](O)[C@@H](C)C/C(C)=C/C=C/[C@H](OC)[C@@H]([C@@H](C)[C@@H](O)[C@H](C)[C@@]2(O)C[C@@H](O)[C@H](C)[C@@H](C(C)C)O2)OC1=O", "note": "[Bafilomycin-A1, bafilomycin-A1]", "values": [{"measurement": "Lowest dose resulting in the maximum degree of colocalization between GFP and RFP puncta", "result": 3, "unit": "nM"}]}
